“Also recorded” adds a separate entry of the source.
Assays:
AML = assay: Clinical administration of TH-302 in advanced leukemia, AML patients; assay type: in vivo
Description: (§1) Clinical investigations were conducted to determine the safety, tolerability and clinically relevant disease responses of TH-302 in patients with acute leukemias, advanced phase chronic myelogenous leukemia (CML), high risk myelodysplastic syndromes, advanced myelofibrosis or relapsed/refractory chronic lymphocytic leukemia (CLL). TH-302 was administered as a 30 to 60 minute intravenous infusion daily for 5 days followed by 2 weeks off therapy. As needed, the 5 days of dosing could be spread out over 8 days. Patients who successfully completed a 3-week treatment cycle without evidence of significant treatment-related toxicity or progressive disease were continued on treatment and could receive treatment for up to six cycles.
(§2) Twenty-one patients have been treated in the study at TH-302 daily doses ranging from 120 mg/m^2 to 460 mg/m^2. All subjects had either AML or ALL and had generally received multiple prior therapies for their disease prior to enrolling for the study.

naive mice = assay: Toxicity in TH-302 treated naive mice; assay type: in vivo, mouse; settings: compared to vehicle-treated naive mice
5T33vt cells = assay: Cell cycle analysis in 5T33vt cells; assay type: cell-based, murine; settings: hypoxia selective manner
[1] = tested on: human and murine multiple myeloma cells; assay: Flow cytometry analysis of apoptosis / toxicity in multiple myeloma cells; assay type: cell-based; settings: also RPMI-8226, 5T33vt, MMS1, Karpas-707 cells
Description: (§3) By employing a set of defined gas mixtures (0%, 1%, 1.25%, 1.5%, 2%, 3%, 20% O2) for drug treatment of the multiple myeloma cells, the oxygen concentration dependent activation of TH-302 was tested in RPMI-8226, LP-1, MMS1 and 5T33vt multiple myeloma cells. […] As the O2 concentration was reduced to 0%, the fraction of apoptotic cells increased to about 70-75%.

ALL = assay: Clinical administration of TH-302 in advanced leukemia, ALL patients; assay type: in vivo; settings: one ALL patient
Description: as §1, §2

5T33MMvv mouse = 5T33MMvv mouse multiple myeloma model, prophylactic treatment for 3 weeks; assay type: in vivo; settings: for multiple myeloma cell apoptosis vs vehicle-treated mice: bone marrow
Description: 5T33MMvv mice were treated prophylactically with TH-302 for 3 weeks. From day 1, the following were observed. […] Therefore, the cancer cytotoxic effect of TH-302 was associated with the hypoxic nature of multiple myeloma cells in the bone marrow.

[2] = tested on: anti-apoptotic and pro-apoptotic Bcl-2 family proteins; assay: Immunoblotting of Bcl-2 family proteins, TH-302, bortezomib and combination; assay type: cell-based
Description: To further determine the mechanism of induction of apoptosis by this combination, the effect of TH-302, bortezomib and the combination on anti-apoptotic and pro-apoptotic Bcl-2 family proteins using immunoblotting was tested.

[3] = tested on: cyclin D1/2/3, CDK4/6, p21cip-1, p27kip-1, pRb, CDK2 in RPMI-8226, LP-1, MMS1 and Karpas-707 multiple myeloma cells; assay: Western blotting of cell cycle machinery; assay type: cell-based, human
HIF1α in RPMI-8226 cells = assay: HIF1α accumulation/expression in hypoxic cells; assay type: cell-based, human
Description: (§4) TH-302 (5 μM) decreased the accumulation of HIF1α in hypoxic RPMI-8226 cells. VEGFa secretion was reduced by TH-302 in 5T33vt cells. *p<0.05, **p<0.01, ***p<0.001, compared to 20% O2 (n=3).
as §3

LP-1 cells = assay: Apoptosis in LP-1 cells; assay type: cell-based, human
Description: as §4, §3

[4] = tested on: BCL-2, BCL-xL, cleaved caspase-3, 8, 9 and PARP; assay: Western blotting of apoptosis proteins; assay type: cell-based
[5] = tested on: Karpas-707, LP-1, MMS1, and RPMI-8226 cells; assay: Cell cycle analysis in multiple myeloma cell lines under hypoxia; assay type: cell-based, human; settings: hypoxic conditions; Karpas-707, LP-1, MMS1, RPMI-8226 cells
[6] = tested on: RPMI-8226, LP-1, MMS1 and 5T33vt multiple myeloma cells; assay: Oxygen concentration dependent activation of TH-302 (defined gas mixtures); assay type: cell-based, human and murine
Description: as §3

[7] = tested on: VEGFa secretion in 5T33vt cells; assay: VEGFa secretion; assay type: cell-based, murine
Description: as §4, §3

Cn1c(COP(=O)(NCCBr)NCCBr)cnc1[N+](=O)[O-] [TH-302]
platelet count (AML; one AML patient started at 120 mg/m^2/day): gradually improving | peripheral blast count (AML; one AML patient started at 120 mg/m^2/day, after each cycle): decreased | disease response (AML; one AML patient, 240 mg/m^2/day, after cycle 1): stable disease | disease response (AML; two AML patients, 120 mg/m^2/day, iv daily for 5 days of 21 day cycle): stable disease | toxicity in terms of body weight, HGB, RBC, WBC, HCT and MVD (naive mice): no substantial toxicity | cell cycle arrest (5T33vt cells): induced Go/G1 cell cycle arrest | apoptosis ([1]; hypoxic conditions, flow cytometry): induced dose-dependent apoptosis | toxicity in normoxic conditions ([1]; normoxic conditions, even at high concentrations): very low toxicity | disease response (ALL; 170 mg/m^2/day, bone marrow biopsy after cycle 1): partial response | disease response (ALL; 240 mg/m^2/day, after cycle 1): stable disease | disease response (ALL; 330 mg/m^2/day, after cycle 1): stable disease | microvessel density (MVD) in the bone marrow vs vehicle-treated mice (5T33MMvv mouse; 12.5 mg/kg): 19 % decrease | paraprotein secretion vs vehicle-treated mice (5T33MMvv mouse; 12.5 mg/kg): 32 % decrease | multiple myeloma cell apoptosis vs vehicle-treated mice (5T33MMvv mouse; 12.5 mg/kg): 2.5 fold | microvessel density (MVD) in the bone marrow vs vehicle-treated mice (5T33MMvv mouse; 25 mg/kg): 20 % decrease | paraprotein secretion vs vehicle-treated mice (5T33MMvv mouse; 25 mg/kg): 77 % decrease | multiple myeloma cell apoptosis vs vehicle-treated mice (5T33MMvv mouse; 25 mg/kg): 2.1 fold | microvessel density (MVD) in the bone marrow vs vehicle-treated mice (5T33MMvv mouse; 50 mg/kg): 26 % decrease | paraprotein secretion vs vehicle-treated mice (5T33MMvv mouse; 50 mg/kg): 54 % decrease | multiple myeloma cell apoptosis vs vehicle-treated mice (5T33MMvv mouse; 50 mg/kg): 3.1 fold | anti-apoptotic Mcl-1 [2]: decreased | expression of anti-apoptotic Bcl-2 and Bcl-xL [2]: decreased | pro-apoptotic BH-3 member Noxa and cleavage of BID [2]: induced | CDK2 expression [3]: remained undisturbed | cyclin D1/2/3, CDK4/6, p21, p27 and pRb expression [3]: down-regulating | accumulation of HIF1α (HIF1α in RPMI-8226 cells; hypoxic RPMI-8226 cells, TH-302 5 μM): decreased | expression of HIF1α (HIF1α in RPMI-8226 cells; hypoxic condition, similar in 5T33vt, LP-1, Karpas-707 cells): reduced | apoptosis (LP-1 cells; LP-1 cells under hypoxia, dose dependence): triggered specific apoptosis in a dose-dependent manner | apoptosis (LP-1 cells; LP-1 cells, TH-302 5 μM): induced apoptosis | anti-apoptotic proteins BCL-2 and BCL-xL [4]: down-regulation | expression of cleaved proapoptotic protein caspase-3, 8, 9 and PARP [4]: up-regulation | cell cycle arrest [5]: induced Go/G1 cell cycle arrest | fraction of apoptotic cells ([6]; O2 concentration reduced to 0%): 70-75% | threshold of activating TH-302 ([6]; gas mixtures 0%, 1%, 1.25%, 1.5%, 2%, 3%, 20% O2): < 1.5 % O2 | VEGFa secretion [7]: reduced; also recorded: significantly decreased

CC(C)C[C@H](NC(=O)[C@H](Cc1ccccc1)NC(=O)c1cnccn1)B(O)O [bortezomib, reference compound]
anti-apoptotic Mcl-1 [2]: accumulated | expression of anti-apoptotic Bcl-2 and Bcl-xL [2]: decreased | pro-apoptotic BH-3 member Noxa and cleavage of BID [2]: induced

From patent publication US20130296273A1, “TREATMENT OF BLOOD CANCER” (Threshold Pharmaceuticals, Inc., priority 2010, published 2013)
